The values that follow come from BindingDB's records for doi:10.1016/j.ejmech.2018.12.019 (Rheinische Friedrich-Wilhelms-University of Bonn, 2019).

Series [1] addresses ATP-dependent translocase ABCB1 (Homo sapiens, UniProt P08183). Nature of the series: Inhibition of ABCB1 in human A2780/ADR cells assessed as potentiation of daunorubicin-induced cytotoxicity measured after 72 hrs by MTT assay. (Tetrazolium dyes change colour on reduction, which living cells bring about.)
Series [2] can be described thus: Inhibition of ABCG2 (unknown origin) expressed in MDCK2 cells co-expressing BCRP (unknown origin) assessed as potentiation of SN-38-induced cytotoxicity measured after 72 hrs by MTT assay.
Series [3] can be described thus: Inhibition of ABCB1 in human A2780/ADR cells assessed as potentiation of daunorubicin-induced cytotoxicity measured after 72 hrs by MTT assay.
In series [4] the target is T1, Broad substrate specificity ATP-binding cassette transporter ABCG2 (Homo sapiens, UniProt Q9UNQ0).
T1 sequence (Q9UNQ0 whole entry): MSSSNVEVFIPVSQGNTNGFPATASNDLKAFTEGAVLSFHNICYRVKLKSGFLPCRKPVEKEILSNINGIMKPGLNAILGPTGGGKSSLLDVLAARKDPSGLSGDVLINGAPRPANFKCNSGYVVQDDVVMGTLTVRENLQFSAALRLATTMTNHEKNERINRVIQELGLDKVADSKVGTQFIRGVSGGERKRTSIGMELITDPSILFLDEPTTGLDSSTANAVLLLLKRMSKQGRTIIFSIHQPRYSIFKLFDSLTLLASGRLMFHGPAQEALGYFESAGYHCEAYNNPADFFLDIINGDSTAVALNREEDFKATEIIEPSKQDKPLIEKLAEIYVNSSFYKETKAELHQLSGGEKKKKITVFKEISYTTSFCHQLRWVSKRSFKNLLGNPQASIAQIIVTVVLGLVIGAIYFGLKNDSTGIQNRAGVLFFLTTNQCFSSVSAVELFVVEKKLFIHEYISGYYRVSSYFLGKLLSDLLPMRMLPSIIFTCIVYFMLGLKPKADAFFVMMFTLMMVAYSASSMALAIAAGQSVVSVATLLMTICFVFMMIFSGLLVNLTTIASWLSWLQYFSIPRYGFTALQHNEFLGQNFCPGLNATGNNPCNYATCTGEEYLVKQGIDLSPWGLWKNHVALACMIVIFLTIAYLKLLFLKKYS
Nature of the series: Inhibition of ABCG2 (unknown origin) expressed in MDCK2 cells co-expressing BCRP (unknown origin) assessed as potentiation of SN-38-induced cytotoxicity measured after 72 hrs by MTT assay.

ATP-dependent translocase ABCB1, sequence (P08183 whole entry): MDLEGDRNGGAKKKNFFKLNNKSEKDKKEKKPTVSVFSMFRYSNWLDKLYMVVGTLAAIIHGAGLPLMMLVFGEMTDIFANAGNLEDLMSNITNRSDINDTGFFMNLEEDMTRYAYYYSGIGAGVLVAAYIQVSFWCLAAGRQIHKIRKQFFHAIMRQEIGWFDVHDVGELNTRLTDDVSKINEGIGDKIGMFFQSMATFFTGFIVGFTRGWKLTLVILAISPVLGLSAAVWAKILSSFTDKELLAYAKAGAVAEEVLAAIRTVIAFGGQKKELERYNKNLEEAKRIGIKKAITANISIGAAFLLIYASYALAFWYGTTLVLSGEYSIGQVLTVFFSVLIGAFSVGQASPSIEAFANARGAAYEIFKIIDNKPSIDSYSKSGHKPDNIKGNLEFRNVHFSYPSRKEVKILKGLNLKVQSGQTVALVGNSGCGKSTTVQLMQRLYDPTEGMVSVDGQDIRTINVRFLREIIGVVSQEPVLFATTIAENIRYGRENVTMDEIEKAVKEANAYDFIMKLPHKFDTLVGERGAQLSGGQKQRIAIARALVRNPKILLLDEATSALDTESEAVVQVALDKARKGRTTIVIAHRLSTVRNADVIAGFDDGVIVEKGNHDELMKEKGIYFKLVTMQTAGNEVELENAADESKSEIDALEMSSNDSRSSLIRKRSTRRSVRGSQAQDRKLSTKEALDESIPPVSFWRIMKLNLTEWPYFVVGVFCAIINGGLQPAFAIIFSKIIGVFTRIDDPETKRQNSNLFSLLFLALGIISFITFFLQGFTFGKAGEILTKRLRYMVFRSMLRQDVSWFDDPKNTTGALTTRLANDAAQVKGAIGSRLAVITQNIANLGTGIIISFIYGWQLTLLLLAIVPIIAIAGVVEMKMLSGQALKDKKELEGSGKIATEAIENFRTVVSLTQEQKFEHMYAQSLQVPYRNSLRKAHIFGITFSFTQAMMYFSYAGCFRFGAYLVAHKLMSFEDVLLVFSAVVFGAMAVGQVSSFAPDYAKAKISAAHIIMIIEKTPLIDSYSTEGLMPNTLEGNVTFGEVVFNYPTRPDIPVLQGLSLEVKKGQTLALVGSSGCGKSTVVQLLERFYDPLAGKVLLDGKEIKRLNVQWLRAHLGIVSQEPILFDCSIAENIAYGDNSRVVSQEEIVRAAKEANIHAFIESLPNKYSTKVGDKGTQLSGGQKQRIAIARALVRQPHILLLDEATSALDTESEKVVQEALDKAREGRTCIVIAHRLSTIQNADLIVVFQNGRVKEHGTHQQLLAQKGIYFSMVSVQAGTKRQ

On to `Cc1cc(Nc2ncc(Cl)c(Nc3ccccc3S(=O)(=O)C(C)C)n2)c(OC(C)C)cc1C1CCNCC1`, for which, in series [1], the EC50 (as a rule, the midpoint of the concentration-response curve) came to 89 nM.

For the compound `O=C(COc1cccc(C(=O)/C=C/c2ccccc2)c1)Nc1ccc2c(c1)COC2=O`, the EC50 in series [2] came out at 1170 nM.

As to `COc1ccc(-c2c(OCC(=O)Nc3cccc4ccccc34)oc3ccccc3c2=O)cc1OC`, the EC50 in series [3] was determined as 3120 nM; in series [2] it was 446 nM.

With `Cc1ccc(-c2c(OCC(=O)Nc3cccc4ccccc34)oc3ccccc3c2=O)cc1`, the EC50 in series [3] is 5010 nM.

Turning to `CCCOc1ccc(/C=C/C(=O)c2ccc(O)cc2)cc1`, the EC50 in series [2] turned out to be 1250 nM.

Regarding `COc1cccc(/C=C/C(=O)c2ccc(OCC(=O)Nc3ccc(OC)c(OC)c3)cc2)c1`, the half-maximal effective concentration (EC50) in series [2] was 1390 nM.

With `O=C(COc1c(-c2ccccc2Cl)oc2ccccc2c1=O)Nc1ccc2c(c1)COC2=O`, the EC50 in series [3] was determined as 9900 nM; in series [2] it was 1220 nM.

As to `COc1cc(C(=O)/C=C/c2cc(OC)c(OC)c(OC)c2)ccc1O`, the EC50 in series [2] amounted to 512 nM.

For `COc1ccc(-c2c(OCC(=O)Nc3cccc4ccccc34)oc3ccccc3c2=O)cc1`, the EC50 in series [2] is 793 nM.

Turning to `COc1ccc(NC(=O)COc2ccc(C(=O)/C=C/c3cc(OC)c(OC)c(OC)c3)cc2)cc1OC`, the EC50 in series [2] is 107 nM.

On to `COc1cc(/C=C/C(=O)c2ccc(OCC(=O)NCc3ccc4c(c3)OCO4)cc2)cc(OC)c1OC`, for which the EC50 in series [2] was 989 nM.

Turning to `COc1ccc(NC(=O)COc2ccc(C(=O)/C=C/c3c(F)cccc3F)cc2)cc1OC`, in series [2], the EC50 was determined as 448 nM.

Regarding `CN1CCN(c2cccc(Nc3nc4c(-c5ccc(S(C)(=O)=O)cc5)cccn4n3)c2)CC1`, the EC50 in series [1] came to 202 nM.

With `Cc1ccc(-n2nc(C(C)(C)C)cc2NC(=O)Nc2ccc(OCCN3CCOCC3)c3ccccc23)cc1` [1-[5-tert-butyl-2-(p-tolyl)pyrazol-3-yl]-3-[4-(2-morpholinoethoxy)-1-naphthyl]urea], the EC50 in series [1] was determined as 524 nM.

As to `C[C@]1(O)C[C@@H](c2nc(-c3ccc4ccc(-c5ccccc5)nc4c3)c3c(N)nccn32)C1` [(1s,3s)-3-(8-amino-1-(2-phenylquinolin-7-yl)imidazo[1,5-a]pyrazin-3-yl)-1-methylcyclobutanol], the EC50 in series [3] turned out to be 2090 nM; in series [4], 104 nM.

With `COC(=O)c1ccc2c(c1)NC(=O)/C2=C(\Nc1ccc(N(C)C(=O)CN2CCN(C)CC2)cc1)c1ccccc1` [BIBF-1120], the EC50 in series [1] is 276 nM.

Take `CC(=O)Nc1cccc(-n2c(=O)n(C3CC3)c(=O)c3c(Nc4ccc(I)cc4F)n(C)c(=O)c(C)c32)c1` [CHEBI:75998]: the EC50 in series [1] amounted to 247 nM.

Turning to `COc1cc2ncnc(Nc3ccc(O)c(Br)c3)c2cc1OC` [WHI-P154], the EC50 in series [3] stood at 3080 nM; in series [4], 189 nM.
